The subject of data set [1] is mouse skin.
The next data set relates to Wistar rats. Briefly: Induction of sarcomas after s.c. injection into Wistar rats.
Data set [2] deals with mouse skin. Briefly: Short-term test on mouse skin: suppression of sebaceous glands.
Data set [3] concerns mouse skin. To be noted: total doses 75-150 ug in 3 applications.
Setting [4] is: single dose 25 ug, TPA promotion.
The mark [5] stands for this setting: female Wistar rats, single s.c. injection 0.9 mg in olive oil, up to 9 months.

The values below come from publication PMC2009935, “Biological activities of dihydrodiols derived from two polycyclic hydrocarbons in rodent test systems” (British Journal of Cancer, 1979).

For `Cc1c2ccccc2cc2c3c(ccc12)C=C[C@@H](O)[C@@H]3O` (relative stereo) [1,2-dihydrodiol, trans-1,2-Dihydro-1,2-dihydroxy-7-methylbenz[a]anthracene], the “tumour development in the initiated mice (in words)” value in the data set on mouse skin [1] (setting [4]) was “only really increased after the amount of TPA applied had been doubled”.

In turn, `c1ccc2c(c1)cc1ccc3cccc4ccc2c1c34` [BP, benzo[a]pyrene, reference compound] showed a No. with sarcomas in the data set on Wistar rats (Table III, female Wistar rats, single s.c. injection 0.9 mg in 0.5 ml olive oil, up to 9 months, 30 animals) of 24. The “sarcomas induced in the group of rats” value in the data set on Wistar rats (setting [5]) is on record as 24/30. Also, in the data set with mouse skin [2] (total dose 150.0 ug in 3 applications in acetone, 8 days after first treatment, 12 microscopic fields), the “Sebaceous glands, No. present” value is given as 0.0.

Regarding `O[C@H]1C=Cc2c(cc3ccc4cccc5ccc2c3c45)[C@@H]1O` (relative stereo) [trans-7,8-Dihydro-7,8-dihydroxy-BP, trans-7,8-Dihydro-7,8-dihydroxybenzo[a]pyrene], the “induction of hyperplasia in mouse skin (in words)” value in the data set on mouse skin [3] is given as “some activity as a hyperplastic agent”. Besides, the “sarcomas induced in the group of rats” value in the data set on Wistar rats (setting [5]) is given as “one”. Moreover, the “activity as s.c. carcinogen in rats (in words)” value with Wistar rats (single s.c. injection 0.9 mg in olive oil) is “very much less active than benzo[a]pyrene as an s.c. carcinogen in rats”. Further, the “suppression of sebaceous glands in mouse skin (in words)” value in the data set on mouse skin [2] (total doses 75-150 ug in 3 applications) is “some activity”.

Take `Cc1c2c(cc3c1ccc1ccccc13)C=C[C@@H](O)[C@@H]2O` (relative stereo) [8,9-dihydrodiol, trans-8,9-dihydro-8,9-dihydroxy-7-methylbenz[a]anthracene]: the “tumour development in the initiated mice (in words)” value in the data set on mouse skin [1] (setting [4]) is “only really increased after the amount of TPA applied had been doubled”.

Take `Cc1c2ccccc2cc2c1ccc1ccccc12` [7-methylbenz[a]anthracene, reference compound]: in the data set with mouse skin [1] (female CDI mice, single dose 25 ug in acetone on dorsal skin, TPA thrice weekly for 52 weeks), the “tumour-initiating activity on mouse skin (in words)” value is “more active than the related 1,2-, 5,6- and 8,9-dihydrodiols”. Moreover, in the data set on mouse skin [1] (setting [4]), the “skin-tumour incidence plateau, first or only, time after initiation” value was above 40 weeks.
